Experimental data published in PubChem BioAssay (NCI).
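Where inhibition never reached the appropriate level, the endpoint shown equals the highest concentration tested. Otherwise, values were interpolated linearly from a five-concentration, 48-hour dose response in 96-well plates. At the TGI there is no net growth.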

What was measured:
Experiment in all cases: growth of human tumour cells (NCI), 48 h
EKVX NSCLC = tested on: EKVX NSCLC
HCC-2998 colon = tested on: HCC-2998 colon
HOP-92 NSCLC = tested on: HOP-92 NSCLC
K-562 leukemia = tested on: K-562 leukemia
MOLT-4 leukemia = tested on: MOLT-4 leukemia
NCI-H226 lung = tested on: NCI-H226 lung
NCI-H460 lung = tested on: NCI-H460 lung
NCI/ADR-RES ovarian = tested on: NCI/ADR-RES ovarian
OVCAR-4 ovarian = tested on: OVCAR-4 ovarian
OVCAR-5 ovarian = tested on: OVCAR-5 ovarian
OVCAR-8 ovarian = tested on: OVCAR-8 ovarian
SK-MEL-28 melanoma = tested on: SK-MEL-28 melanoma
SK-OV-3 ovarian = tested on: SK-OV-3 ovarian
SNB-75 CNS = tested on: SNB-75 CNS
SR leukemia = tested on: SR leukemia
SW-620 colon = tested on: SW-620 colon
UACC-62 melanoma = tested on: UACC-62 melanoma
M14 melanoma = tested on: M14 melanoma
SF-268 CNS = tested on: SF-268 CNS
SNB-19 CNS = tested on: SNB-19 CNS

Question: What does the source list for C=CCN1C(=O)/C(=C/c2ccccc2)N=C1SC1OC(COC(=O)c2ccccc2)C(OC(=O)c2ccccc2)C1OC(=O)c1ccccc1 (stereo unspecified)?
Answer: TGI (EKVX NSCLC): > 100 µM; TGI (HCC-2998 colon): > 100 µM; TGI (HOP-92 NSCLC): > 100 µM; TGI (K-562 leukemia): > 100 µM; TGI (MOLT-4 leukemia): > 100 µM; TGI (NCI-H226 lung): > 100 µM; TGI (NCI-H460 lung): > 100 µM; TGI (NCI/ADR-RES ovarian): > 100 µM; TGI (OVCAR-4 ovarian): > 100 µM; TGI (OVCAR-5 ovarian): > 100 µM; TGI (OVCAR-8 ovarian): > 100 µM; TGI (SK-MEL-28 melanoma): > 100 µM; TGI (SK-OV-3 ovarian): > 100 µM; TGI (SNB-75 CNS): > 100 µM; TGI (SR leukemia): > 100 µM; TGI (SW-620 colon): > 100 µM; TGI (UACC-62 melanoma): > 100 µM

Question: Which results are given for CCN1c2ccccc2-n2c(C)nnc2-c2c1n[nH]c2-c1ccccc1?
Answer: TGI (EKVX NSCLC): > 100 µM; TGI (HOP-92 NSCLC): > 100 µM; TGI (K-562 leukemia): 26 µM; TGI (M14 melanoma): > 100 µM; TGI (MOLT-4 leukemia): 50.7 µM; TGI (NCI-H460 lung): > 100 µM; TGI (NCI/ADR-RES ovarian): 73.1 µM; TGI (OVCAR-4 ovarian): > 100 µM; TGI (OVCAR-5 ovarian): > 100 µM; TGI (OVCAR-8 ovarian): > 100 µM; TGI (SF-268 CNS): > 100 µM; TGI (SK-MEL-28 melanoma): > 100 µM; TGI (SK-OV-3 ovarian): > 100 µM; TGI (SNB-19 CNS): > 100 µM; TGI (SNB-75 CNS): > 100 µM; TGI (SR leukemia): 59.2 µM; TGI (SW-620 colon): > 100 µM; TGI (UACC-62 melanoma): 98.9 µM

Question: How did the TGI (EKVX NSCLC) turn out when CC(C)OP(=O)(OC(C)C)c1c(Nc2ccccc2)n[nH]c1N was run?
Answer: > 100 µM

Question: What about the TGI (HCC-2998 colon) of the same compound?
Answer: > 100 µM

Question: What about the TGI (HOP-92 NSCLC) of the same compound?
Answer: > 100 µM

Question: What about the TGI (K-562 leukemia) of the same compound?
Answer: > 100 µM

Question: And the TGI (M14 melanoma)?
Answer: > 100 µM

Question: What about the TGI (MOLT-4 leukemia) of the same compound?
Answer: > 100 µM

Question: What about the TGI (NCI-H226 lung) of the same compound?
Answer: > 100 µM

Question: What about the TGI (NCI-H460 lung) of the same compound?
Answer: > 100 µM

Question: And the TGI (NCI/ADR-RES ovarian)?
Answer: > 100 µM

Question: What about the TGI (OVCAR-4 ovarian) of the same compound?
Answer: > 100 µM

Question: What about the TGI (OVCAR-5 ovarian) of the same compound?
Answer: > 100 µM

Question: What about the TGI (OVCAR-8 ovarian) of the same compound?
Answer: > 100 µM

Question: What about the TGI (SF-268 CNS) of the same compound?
Answer: > 100 µM

Question: And the TGI (SK-MEL-28 melanoma)?
Answer: > 100 µM

Question: And the TGI (SK-OV-3 ovarian)?
Answer: > 100 µM

Question: And the TGI (SNB-19 CNS)?
Answer: > 100 µM

Question: What about the TGI (SNB-75 CNS) of the same compound?
Answer: > 100 µM

Question: What about the TGI (SR leukemia) of the same compound?
Answer: > 100 µM

Question: And the TGI (SW-620 colon)?
Answer: > 100 µM

Question: What about the TGI (UACC-62 melanoma) of the same compound?
Answer: > 100 µM

Question: Which results are given for C[C@]12CC[C@@H]3c4ccc(O)cc4CC[C@H]3[C@@H]1C/C(=C\c1ccncc1)C2=O?
Answer: TGI (EKVX NSCLC): > 100 µM; TGI (HCC-2998 colon): > 100 µM; TGI (HOP-92 NSCLC): > 100 µM; TGI (K-562 leukemia): > 100 µM; TGI (M14 melanoma): > 100 µM; TGI (MOLT-4 leukemia): > 100 µM; TGI (NCI-H226 lung): 68.6 µM; TGI (NCI-H460 lung): > 100 µM; TGI (NCI/ADR-RES ovarian): 60.1 µM; TGI (OVCAR-4 ovarian): > 100 µM; TGI (OVCAR-5 ovarian): > 100 µM; TGI (OVCAR-8 ovarian): 56.3 µM; TGI (SF-268 CNS): > 100 µM; TGI (SK-MEL-28 melanoma): > 100 µM; TGI (SK-OV-3 ovarian): > 100 µM; TGI (SNB-19 CNS): > 100 µM; TGI (SNB-75 CNS): > 100 µM; TGI (SR leukemia): > 100 µM; TGI (SW-620 colon): > 100 µM; TGI (UACC-62 melanoma): 50.9 µM

Question: C=C(C(=O)C(=O)Oc1ccc(Cl)cc1)C(=O)c1ccc(C)cc1 was tested. Which TGI (EKVX NSCLC) did it give?
Answer: > 100 µM

Question: And the TGI (HCC-2998 colon)?
Answer: 76 µM

Question: What about the TGI (HOP-92 NSCLC) of the same compound?
Answer: > 100 µM

Question: And the TGI (K-562 leukemia)?
Answer: > 100 µM

Question: What about the TGI (M14 melanoma) of the same compound?
Answer: 81.8 µM

Question: And the TGI (MOLT-4 leukemia)?
Answer: > 100 µM

Question: And the TGI (NCI-H226 lung)?
Answer: > 100 µM

Question: And the TGI (NCI-H460 lung)?
Answer: > 100 µM

Question: And the TGI (OVCAR-4 ovarian)?
Answer: > 100 µM

Question: And the TGI (OVCAR-5 ovarian)?
Answer: > 100 µM

Question: And the TGI (OVCAR-8 ovarian)?
Answer: > 100 µM

Question: What about the TGI (SF-268 CNS) of the same compound?
Answer: > 100 µM

Question: And the TGI (SK-MEL-28 melanoma)?
Answer: > 100 µM

Question: What about the TGI (SK-OV-3 ovarian) of the same compound?
Answer: > 100 µM

Question: What about the TGI (SNB-19 CNS) of the same compound?
Answer: > 100 µM

Question: What about the TGI (SNB-75 CNS) of the same compound?
Answer: > 100 µM

Question: What about the TGI (SR leukemia) of the same compound?
Answer: 57.6 µM

Question: What about the TGI (SW-620 colon) of the same compound?
Answer: 36.4 µM

Question: What about the TGI (UACC-62 melanoma) of the same compound?
Answer: > 100 µM

Question: What does the source list for C#CCCCCC#Cc1ccccc1C(=O)OC?
Answer: TGI (EKVX NSCLC): > 100 µM; TGI (HCC-2998 colon): > 100 µM; TGI (HOP-92 NSCLC): 86 µM; TGI (K-562 leukemia): 67.4 µM; TGI (M14 melanoma): > 100 µM; TGI (MOLT-4 leukemia): 38.3 µM; TGI (NCI-H226 lung): > 100 µM; TGI (NCI-H460 lung): > 100 µM; TGI (OVCAR-4 ovarian): > 100 µM; TGI (OVCAR-5 ovarian): > 100 µM; TGI (OVCAR-8 ovarian): 31.5 µM; TGI (SF-268 CNS): > 100 µM; TGI (SK-MEL-28 melanoma): > 100 µM; TGI (SK-OV-3 ovarian): > 100 µM; TGI (SNB-19 CNS): > 100 µM; TGI (SNB-75 CNS): 86.5 µM; TGI (SR leukemia): 29.2 µM; TGI (SW-620 colon): 46.1 µM; TGI (UACC-62 melanoma): 94.7 µM

Question: Which results are given for COCCOCOc1ccc(OCc2ccccc2)cc1?
Answer: TGI (EKVX NSCLC): 97.3 µM; TGI (HCC-2998 colon): > 100 µM; TGI (HOP-92 NSCLC): > 100 µM; TGI (K-562 leukemia): > 100 µM; TGI (MOLT-4 leukemia): > 100 µM; TGI (NCI-H226 lung): > 100 µM; TGI (NCI-H460 lung): > 100 µM; TGI (NCI/ADR-RES ovarian): > 100 µM; TGI (OVCAR-4 ovarian): > 51 µM; TGI (OVCAR-5 ovarian): > 100 µM; TGI (OVCAR-8 ovarian): > 100 µM; TGI (SF-268 CNS): > 100 µM; TGI (SK-MEL-28 melanoma): > 100 µM; TGI (SK-OV-3 ovarian): > 100 µM; TGI (SNB-19 CNS): > 100 µM; TGI (SNB-75 CNS): > 41.1 µM; TGI (SW-620 colon): > 100 µM; TGI (UACC-62 melanoma): > 100 µM

Question: Which TGI (EKVX NSCLC) does the source give for Oc1ccc(/C=C/c2cc(O)cc(O)c2)cc1 here?
Answer: > 100 µM

Question: And the TGI (HCC-2998 colon)?
Answer: > 100 µM

Question: And the TGI (HOP-92 NSCLC)?
Answer: > 100 µM

Question: And the TGI (M14 melanoma)?
Answer: > 100 µM

Question: And the TGI (MOLT-4 leukemia)?
Answer: > 100 µM

Question: What about the TGI (NCI-H226 lung) of the same compound?
Answer: > 100 µM

Question: What about the TGI (NCI-H460 lung) of the same compound?
Answer: > 100 µM

Question: What about the TGI (NCI/ADR-RES ovarian) of the same compound?
Answer: > 100 µM

Question: What about the TGI (OVCAR-4 ovarian) of the same compound?
Answer: > 100 µM

Question: What about the TGI (OVCAR-5 ovarian) of the same compound?
Answer: > 100 µM

Question: And the TGI (OVCAR-8 ovarian)?
Answer: > 100 µM

Question: And the TGI (SF-268 CNS)?
Answer: > 100 µM

Question: And the TGI (SK-MEL-28 melanoma)?
Answer: > 100 µM

Question: And the TGI (SK-OV-3 ovarian)?
Answer: > 100 µM

Question: And the TGI (SNB-19 CNS)?
Answer: > 100 µM

Question: And the TGI (SNB-75 CNS)?
Answer: > 100 µM

Question: What about the TGI (SR leukemia) of the same compound?
Answer: > 100 µM

Question: And the TGI (SW-620 colon)?
Answer: > 100 µM

Question: And the TGI (UACC-62 melanoma)?
Answer: > 100 µM

Question: C/C(CCOC1CCCCO1)=C(\C)[Si](C)(C)C (stereo unspecified) was tested. Which TGI (EKVX NSCLC) did it give?
Answer: > 100 µM

Question: What about the TGI (HCC-2998 colon) of the same compound?
Answer: > 100 µM

Question: What about the TGI (HOP-92 NSCLC) of the same compound?
Answer: > 100 µM

Question: And the TGI (K-562 leukemia)?
Answer: > 100 µM

Question: What about the TGI (M14 melanoma) of the same compound?
Answer: > 100 µM

Question: What about the TGI (MOLT-4 leukemia) of the same compound?
Answer: > 100 µM

Question: What about the TGI (NCI-H460 lung) of the same compound?
Answer: > 100 µM

Question: And the TGI (OVCAR-5 ovarian)?
Answer: > 100 µM

Question: What about the TGI (OVCAR-8 ovarian) of the same compound?
Answer: > 100 µM

Question: What about the TGI (SF-268 CNS) of the same compound?
Answer: > 100 µM

Question: What about the TGI (SK-MEL-28 melanoma) of the same compound?
Answer: > 100 µM

Question: And the TGI (SNB-19 CNS)?
Answer: > 100 µM

Question: And the TGI (SNB-75 CNS)?
Answer: > 100 µM

Question: What about the TGI (SR leukemia) of the same compound?
Answer: > 100 µM

Question: What about the TGI (SW-620 colon) of the same compound?
Answer: > 100 µM

Question: And the TGI (UACC-62 melanoma)?
Answer: > 100 µM
